Experimental data as given in BindingDB's records for patent US20250282782 (Genzyme, 2025).

The compounds below were run against T1, Tyrosine-protein phosphatase non-receptor type 11 (Homo sapiens, UniProt Q06124) (assay: Inhibition of SHP2 Phosphatase Activity Assay).
T1 sequence (Q06124 whole entry): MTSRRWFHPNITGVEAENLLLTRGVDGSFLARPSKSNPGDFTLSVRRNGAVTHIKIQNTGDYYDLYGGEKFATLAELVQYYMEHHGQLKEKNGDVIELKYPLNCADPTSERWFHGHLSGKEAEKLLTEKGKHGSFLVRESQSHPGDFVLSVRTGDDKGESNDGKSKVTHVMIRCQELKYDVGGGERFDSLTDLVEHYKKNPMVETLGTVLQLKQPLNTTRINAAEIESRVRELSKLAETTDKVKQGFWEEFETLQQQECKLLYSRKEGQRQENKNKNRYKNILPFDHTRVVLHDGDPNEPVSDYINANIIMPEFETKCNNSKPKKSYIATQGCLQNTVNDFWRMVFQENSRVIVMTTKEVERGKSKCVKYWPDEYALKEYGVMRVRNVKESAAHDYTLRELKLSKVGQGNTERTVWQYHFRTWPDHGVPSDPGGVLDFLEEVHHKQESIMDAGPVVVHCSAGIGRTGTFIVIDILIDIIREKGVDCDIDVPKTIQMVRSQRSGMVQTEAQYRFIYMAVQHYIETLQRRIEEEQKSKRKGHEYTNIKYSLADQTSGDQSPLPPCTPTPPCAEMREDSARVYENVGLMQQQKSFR
Experimental: Inhibition of SHP2 phosphatase activity was evaluated using human recombinant 6His-Nterm (SEQ ID NO: 1) SHP2 full-length (Thr2-Arg593, R&D system), NsCs bi-phosphorylated activating peptide (NH2-LN(pY)AQLWHA(PEG8)LTI(pY)ATIRRF-Amide.acetate (SEQ ID NO: 2), Thermofischer Scientific) and DiFMUP as surrogate phosphatase substrate (Molecular Probes). All reactions were performed at room temperature in 384-well black polystyrene non-binding plate (Corning) with the assay buffer (50 mM HEPES-NaOH pH 7.2, 100 mM NaCl, 0.5 mM EDTA, 0.001% Brij35 including 0.02% BSA and 1 mM DTT added extemporaneously). SHP2 was pre-incubated at least 10 min with the activating peptide (0.2 nM and 100 nM, respectively). 10 μL of this mixture was added to the assay plate, that already contained 15 nL of the compound (1000-0.05 nM). After 30 min pre-incubation, the enzymatic reaction was initiated by the addition of 5 μL DiFMUP in assay buffer without BSA (20 μM). The reaction was stopped by the addition of 15 μL sodium pervanadate solution (100 μM) after 45 min incubation. The fluorescence signal was measured at excitation and emission wavelengths of 350 nm and 450 nm, respectively, using a Pherastar instrument (BMG-LabTech).

Compared with `Cc1nc(N2CCC3(CC2)Cc2ncccc2[C@H]3N)c2ccnn2c1-c1cc2c(cc1F)OCCO2` [US20250282782, Compound 58], `Cc1ccc(F)c(-c2c(C)nc(N3CCC4(CC3)Cc3ncccc3[C@H]4N)c3ccnn23)c1` [US20250282782, Compound 205] is 3.2-fold lower in IC50: 0.035 µM for the first, 0.011 µM for the second.

Compared with `Cc1nc(N2CCC3(CC2)Cc2scnc2[C@H]3N)c2ccnn2c1-c1ccccc1F` [US20250282782, Compound 66], `Cc1nc(N2CCC3(CC2)Cc2scnc2[C@H]3N)c2ccnn2c1-c1cnn(C)c1C` [US20250282782, Compound 67] is 5.2-fold higher in IC50: 0.022 µM for the first, 0.115 µM for the second. The first is the more potent here.

`Cc1nc(N2CCC3(CC2)Cc2ncsc2[C@H]3N)c2ccnn2c1-c1cnn(C)c1C` [US20250282782, Compound 72] and `Cc1cc2c(cn1)CC1(CCN(c3nc(C)c(-c4cnn(C)c4C)n4nccc34)CC1)[C@@H]2N` [US20250282782, Compound 113] are within 1.5-fold of each other in IC50: 0.027 µM for the first, 0.028 µM for the second.
